Measured values as given in the supplement of paper PMC10307832.

Assays:
Assay in all cases: relative viability (nuclei count vs DMSO), 5 days (fraction); higher = more cells survive
[1] = tested on: CAL-12T
How it was run: (§1)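 Relative viability divides the nuclei count in treated wells by that in vehicle wells. Lung cancer cell lines were seeded in 1536-well plates, dosed by pin tool the next day, and fixed and stained after 5 days in one step with final 0.05% Triton X-100, 1% formaldehyde and 1 ug/ml Hoechst. Dosing was a single drug or a fixed anchor-drug dose plus five library-drug doses (not always all listed) in √10 steps, and values are medians of duplicate plates imaged at 4×.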

[2] = tested on: NCI-H2085
How it was run: as §1

[3] = tested on: NCI-H2170
How it was run: as §1

[4] = tested on: NCI-H1651
How it was run: as §1

[5] = tested on: SK-MES-1
How it was run: as §1

[6] = tested on: NCI-H1355
How it was run: as §1

[7] = tested on: BEN
How it was run: as §1

[8] = tested on: NCI-H2087
How it was run: as §1

[9] = tested on: NCI-H520
How it was run: as §1

[10] = tested on: HCC-44
How it was run: as §1

[11] = tested on: LXF-289
How it was run: as §1

[12] = tested on: NCI-H1666
How it was run: as §1

[13] = tested on: NCI-H1755
How it was run: as §1

[14] = tested on: NCI-H460
How it was run: as §1

[15] = tested on: LU99A
How it was run: as §1

[16] = tested on: PC-14
How it was run: as §1

[17] = tested on: NCI-H1993
How it was run: as §1

[18] = tested on: COR-L23
How it was run: as §1

[19] = tested on: NCI-H1563
How it was run: as §1

[20] = tested on: NCI-H1437
How it was run: as §1

[21] = tested on: NCI-H1650
How it was run: as §1

[22] = tested on: NCI-H1792
How it was run: as §1

Cc1cn(-c2cc(NC(=O)c3ccc(C)c(Nc4nccc(-c5cccnc5)n4)c3)cc(C(F)(F)F)c2)cn1 [Nilotinib] + N=C(N)NC(=N)NCCc1ccccc1 [Phenformin] (partner 250 µM)
relative viability ([1]; first compound 0.001 µM): 0.554
relative viability ([1]; first compound 0.003162 µM): 0.563
relative viability ([1]; first compound 0.01 µM): 0.701
relative viability ([1]; first compound 0.03162 µM): 0.436
relative viability ([1]; first compound 0.1 µM): 0.47
relative viability ([2]; first compound 0.001 µM): 0.76
relative viability ([2]; first compound 0.003162 µM): 0.749
relative viability ([2]; first compound 0.01 µM): 0.769
relative viability ([2]; first compound 0.03162 µM): 0.493
relative viability ([2]; first compound 0.1 µM): 0.581
relative viability ([3]; first compound 0.001 µM): 0.408
relative viability ([3]; first compound 0.003162 µM): 0.432
relative viability ([3]; first compound 0.01 µM): 0.409
relative viability ([3]; first compound 0.03162 µM): 0.394
relative viability ([3]; first compound 0.1 µM): 0.363
relative viability ([4]; first compound 0.001 µM): 0.346
relative viability ([4]; first compound 0.003162 µM): 0.392
relative viability ([4]; first compound 0.01 µM): 0.437
relative viability ([4]; first compound 0.03162 µM): 0.308
relative viability ([4]; first compound 0.1 µM): 0.356
relative viability ([5]; first compound 0.001 µM): 0.614
relative viability ([5]; first compound 0.003162 µM): 0.734
relative viability ([5]; first compound 0.01 µM): 0.74
relative viability ([5]; first compound 0.03162 µM): 0.566
relative viability ([5]; first compound 0.1 µM): 0.554
relative viability ([6]; first compound 0.001 µM): 0.451
relative viability ([6]; first compound 0.003162 µM): 0.426
relative viability ([6]; first compound 0.01 µM): 0.401
relative viability ([6]; first compound 0.03162 µM): 0.361
relative viability ([6]; first compound 0.1 µM): 0.424
relative viability ([7]; first compound 0.001 µM): 0.264
relative viability ([7]; first compound 0.003162 µM): 0.292
relative viability ([7]; first compound 0.01 µM): 0.237
relative viability ([7]; first compound 0.03162 µM): 0.259
relative viability ([7]; first compound 0.1 µM): 0.289
relative viability ([8]; first compound 0.001 µM): 0.403
relative viability ([8]; first compound 0.003162 µM): 0.518
relative viability ([8]; first compound 0.01 µM): 0.519
relative viability ([8]; first compound 0.03162 µM): 0.301
relative viability ([8]; first compound 0.1 µM): 0.215
relative viability ([9]; first compound 0.001 µM): 0.707
relative viability ([9]; first compound 0.01 µM): 0.655
relative viability ([9]; first compound 0.03162 µM): 0.447
relative viability ([9]; first compound 0.1 µM): 0.428
relative viability ([10]; first compound 0.001 µM): 0.154
relative viability ([10]; first compound 0.003162 µM): 0.145
relative viability ([10]; first compound 0.01 µM): 0.186
relative viability ([10]; first compound 0.03162 µM): 0.179
relative viability ([10]; first compound 0.1 µM): 0.166
relative viability ([11]; first compound 0.001 µM): 0.545
relative viability ([11]; first compound 0.003162 µM): 0.562
relative viability ([11]; first compound 0.01 µM): 0.558
relative viability ([11]; first compound 0.03162 µM): 0.506
relative viability ([11]; first compound 0.1 µM): 0.454
relative viability ([12]; first compound 0.001 µM): 0.605
relative viability ([12]; first compound 0.003162 µM): 0.615
relative viability ([12]; first compound 0.01 µM): 0.578
relative viability ([12]; first compound 0.03162 µM): 0.545
relative viability ([12]; first compound 0.1 µM): 0.652
relative viability ([13]; first compound 0.001 µM): 0.589
relative viability ([13]; first compound 0.003162 µM): 0.616
relative viability ([13]; first compound 0.01 µM): 0.564
relative viability ([13]; first compound 0.03162 µM): 0.534
relative viability ([13]; first compound 0.1 µM): 0.486
relative viability ([14]; first compound 0.001 µM): 0.298
relative viability ([14]; first compound 0.003162 µM): 0.805
relative viability ([14]; first compound 0.01 µM): 1.18
relative viability ([14]; first compound 0.03162 µM): 0.338
relative viability ([14]; first compound 0.1 µM): 0.106
relative viability ([15]; first compound 0.001 µM): 0.697
relative viability ([15]; first compound 0.003162 µM): 0.907
relative viability ([15]; first compound 0.01 µM): 0.798
relative viability ([15]; first compound 0.03162 µM): 0.611
relative viability ([15]; first compound 0.1 µM): 0.483
relative viability ([16]; first compound 0.001 µM): 0.573
relative viability ([16]; first compound 0.003162 µM): 0.538
relative viability ([16]; first compound 0.01 µM): 0.546
relative viability ([16]; first compound 0.03162 µM): 0.459
relative viability ([16]; first compound 0.1 µM): 0.542
relative viability ([17]; first compound 0.001 µM): 0.554
relative viability ([17]; first compound 0.003162 µM): 0.55
relative viability ([17]; first compound 0.01 µM): 0.522
relative viability ([17]; first compound 0.03162 µM): 0.482
relative viability ([17]; first compound 0.1 µM): 0.701
relative viability ([18]; first compound 0.001 µM): 0.448
relative viability ([18]; first compound 0.003162 µM): 0.52
relative viability ([18]; first compound 0.01 µM): 0.591
relative viability ([18]; first compound 0.03162 µM): 0.42
relative viability ([18]; first compound 0.1 µM): 0.45
relative viability ([19]; first compound 0.001 µM): 0.635
relative viability ([19]; first compound 0.003162 µM): 0.689
relative viability ([19]; first compound 0.01 µM): 0.609
relative viability ([19]; first compound 0.03162 µM): 0.635
relative viability ([19]; first compound 0.1 µM): 0.61
relative viability ([20]; first compound 0.001 µM): 0.325
relative viability ([20]; first compound 0.003162 µM): 0.335
relative viability ([20]; first compound 0.01 µM): 0.331
relative viability ([20]; first compound 0.03162 µM): 0.23
relative viability ([20]; first compound 0.1 µM): 0.224
relative viability ([21]; first compound 0.001 µM): 0.464
relative viability ([21]; first compound 0.003162 µM): 0.437
relative viability ([21]; first compound 0.01 µM): 0.385
relative viability ([21]; first compound 0.03162 µM): 0.32
relative viability ([21]; first compound 0.1 µM): 0.307
relative viability ([22]; first compound 0.001 µM): 0.277
relative viability ([22]; first compound 0.003162 µM): 0.318
relative viability ([22]; first compound 0.01 µM): 0.164
relative viability ([22]; first compound 0.03162 µM): 0.203
relative viability ([22]; first compound 0.1 µM): 0.259
